# Measurements: ChEMBL document CHEMBL1201862, “PubChem BioAssay data set” (2004)
#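 Results reflect a 48-hour exposure of cells in 96-well plates to compound at five concentrations. GI50 = concentration required for 50% inhibition of growth.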 Active and inactive are the calls of the source. No stated cut-off is given here; in the data, active = GI50 up to about 1.1 µM and inactive = higher.
# How the values were obtained:
# Assay in all cases: NCI-60 cell line screen, 48 h
# CAKI-1 = system: CAKI-1
# DU-145 = system: DU-145
# IGROV-1 = system: IGROV-1
# K562 = system: K562
# KM12 = system: KM12
# MDA-MB-231 = system: MDA-MB-231
# MDA-MB-435 = system: MDA-MB-435
# NCI-H23 = system: NCI-H23
# NCI/ADR-RES = system: NCI/ADR-RES
# OVCAR-3 = system: OVCAR-3
# OVCAR-5 = system: OVCAR-5
# PC-3 = system: PC-3
# SF-268 = system: SF-268
# SF-539 = system: SF-539
# SW-620 = system: SW-620
# TK-10 = system: TK-10
# RXF 393 = system: RXF 393
Structure (SMILES),GI50 (CAKI-1),GI50 (DU-145),GI50 (IGROV-1),GI50 (K562),GI50 (KM12),GI50 (MDA-MB-231),GI50 (MDA-MB-435),GI50 (NCI-H23),GI50 (NCI/ADR-RES),GI50 (OVCAR-3),GI50 (OVCAR-5),GI50 (PC-3),GI50 (SF-268),GI50 (SF-539),GI50 (SW-620),GI50 (TK-10),GI50 (RXF 393)
O=C(CN1CCCCC1)Nc1ccc2sc3ccccc3c(=O)c2n1,13.6 µM (inactive),20.3 µM (inactive),16 µM (inactive),5.36 µM (inactive),19.1 µM (inactive),18.5 µM (inactive),13.1 µM (inactive),16.9 µM (inactive),7.82 µM (inactive),31.5 µM (inactive),18.2 µM (inactive),10.9 µM (inactive),24.2 µM (inactive),16.4 µM (inactive),5.25 µM (inactive),19.1 µM (inactive),–
CCOC(=O)n1c2ccccc2c2c(O)c(OC)c3c(c21)C(=O)NC3=O,20.7 µM (inactive),30 µM (inactive),14.7 µM (inactive),40.9 µM (inactive),50.8 µM (inactive),20.6 µM (inactive),60 µM (inactive),52.5 µM (inactive),28.6 µM (inactive),22.2 µM (inactive),50.9 µM (inactive),45.8 µM (inactive),–,57.5 µM (inactive),35.5 µM (inactive),52.1 µM (inactive),–
O=C1CCCN1C(=O)CS(=O)(=O)c1ccccc1,> 100 µM (inactive),> 100 µM (inactive),> 100 µM (inactive),> 100 µM (inactive),> 100 µM (inactive),> 100 µM (inactive),> 100 µM (inactive),> 100 µM (inactive),> 100 µM (inactive),> 100 µM (inactive),> 100 µM (inactive),> 100 µM (inactive),> 100 µM (inactive),–,> 100 µM (inactive),> 100 µM (inactive),> 100 µM (inactive)
Cc1cccc(C)c1NC(=O)/C(Cc1nc2ccc([N+](=O)[O-])cc2nc1O)=N\NC(N)=O,> 100 µM (inactive),> 100 µM (inactive),89.3 µM (inactive),39.7 µM (inactive),57.5 µM (inactive),> 100 µM (inactive),98.2 µM (inactive),> 100 µM (inactive),85.5 µM (inactive),> 100 µM (inactive),> 100 µM (inactive),66.5 µM (inactive),> 100 µM (inactive),> 100 µM (inactive),52.5 µM (inactive),> 100 µM (inactive),–
COc1ccc(CCCNC(=O)Cc2ccccc2CO)cc1OC,> 100 µM (inactive),> 100 µM (inactive),> 100 µM (inactive),> 100 µM (inactive),> 100 µM (inactive),> 100 µM (inactive),> 100 µM (inactive),> 100 µM (inactive),> 100 µM (inactive),> 100 µM (inactive),> 100 µM (inactive),> 100 µM (inactive),–,–,> 100 µM (inactive),> 100 µM (inactive),–
COc1c(Cl)nc2ccccc2c1N=[N+]=[N-],49.4 µM (inactive),> 100 µM (inactive),49.5 µM (inactive),83.9 µM (inactive),> 100 µM (inactive),77.1 µM (inactive),> 100 µM (inactive),92.7 µM (inactive),–,> 100 µM (inactive),> 100 µM (inactive),46 µM (inactive),28.7 µM (inactive),71.9 µM (inactive),> 100 µM (inactive),70 µM (inactive),30.1 µM (inactive)
COc1ccc(C(=O)N2CCc3c([nH]c4ccccc34)C2C(=O)O)o1 (stereo not given),> 10 µM (inactive),> 10 µM (inactive),> 10 µM (inactive),> 10 µM (inactive),> 10 µM (inactive),> 10 µM (inactive),> 10 µM (inactive),–,> 10 µM (inactive),> 10 µM (inactive),–,> 10 µM (inactive),> 10 µM (inactive),> 10 µM (inactive),> 10 µM (inactive),> 10 µM (inactive),–
Cc1noc(/N=C2\C=C(O)C(=O)c3ccccc32)c1C,5 µM (inactive),11.4 µM (inactive),10 µM (inactive),0.206 µM (active),0.254 µM (active),11.6 µM (inactive),0.126 µM (active),3.47 µM (inactive),0.505 µM (active),4.31 µM (inactive),9.27 µM (inactive),16.4 µM (inactive),16.9 µM (inactive),1.04 µM (active),–,> 100 µM (inactive),–
C=C(C)CCC1CC=[N+]([O-])OC1C(C)(C)C (stereo not given),26.2 µM (inactive),37.4 µM (inactive),34.6 µM (inactive),> 100 µM (inactive),28.2 µM (inactive),26.8 µM (inactive),16.1 µM (inactive),–,27.3 µM (inactive),66.1 µM (inactive),> 100 µM (inactive),–,58.9 µM (inactive),72.6 µM (inactive),44.5 µM (inactive),> 100 µM (inactive),18.2 µM (inactive)
COC(=O)CP1(=O)OC2C(C3CCC2(C)C3(C)C)N1c1cc(C(F)(F)F)cc(C(F)(F)F)c1 (stereo not given),24.9 µM (inactive),31.3 µM (inactive),45.7 µM (inactive),19.5 µM (inactive),17.1 µM (inactive),20.6 µM (inactive),22.1 µM (inactive),26.6 µM (inactive),20.6 µM (inactive),15.2 µM (inactive),25.3 µM (inactive),19.9 µM (inactive),23 µM (inactive),21.9 µM (inactive),24.1 µM (inactive),24.7 µM (inactive),–
COc1cc([N+](=O)[O-])c(S(=O)(=O)O)cc1N,> 100 µM (inactive),> 100 µM (inactive),> 100 µM (inactive),> 100 µM (inactive),> 100 µM (inactive),> 100 µM (inactive),> 100 µM (inactive),> 100 µM (inactive),> 100 µM (inactive),> 100 µM (inactive),> 100 µM (inactive),> 100 µM (inactive),> 100 µM (inactive),> 100 µM (inactive),> 100 µM (inactive),> 100 µM (inactive),–
C=CCC1C2CCC(O[Si](C(C)C)(C(C)C)C(C)C)(C(C(=O)OC)C2)C1O (stereo not given),> 100 µM (inactive),> 100 µM (inactive),69.2 µM (inactive),71.9 µM (inactive),54.5 µM (inactive),> 100 µM (inactive),53.7 µM (inactive),23.5 µM (inactive),> 100 µM (inactive),> 100 µM (inactive),> 100 µM (inactive),67.5 µM (inactive),> 100 µM (inactive),> 100 µM (inactive),> 100 µM (inactive),14.4 µM (inactive),–
CCCC(=O)Oc1cc(OC(=O)CCC)c2c(C)cc(=O)oc2c1,–,> 100 µM (inactive),44.1 µM (inactive),44.9 µM (inactive),32.5 µM (inactive),> 100 µM (inactive),58.6 µM (inactive),71 µM (inactive),> 100 µM (inactive),50 µM (inactive),> 100 µM (inactive),76.2 µM (inactive),> 100 µM (inactive),21.8 µM (inactive),49.9 µM (inactive),> 100 µM (inactive),–
